From article PMC9034178, “Self-assemblies of pluronic micelles in partitioning of anticancer drugs and effectiveness of this system towards target protein” (RSC Advances, 2021)

The compounds below were run against T1, bovine serum albumin (BSA) (Bos taurus, UniProt P02769) (assay: tryptophan fluorescence quenching (ex […] nm), double-log plot). Details: no pluronic; pH 7.4, 298.15 K.
T1 construct: gene ALB
Type: binding

T1 sequence (P02769 25-607): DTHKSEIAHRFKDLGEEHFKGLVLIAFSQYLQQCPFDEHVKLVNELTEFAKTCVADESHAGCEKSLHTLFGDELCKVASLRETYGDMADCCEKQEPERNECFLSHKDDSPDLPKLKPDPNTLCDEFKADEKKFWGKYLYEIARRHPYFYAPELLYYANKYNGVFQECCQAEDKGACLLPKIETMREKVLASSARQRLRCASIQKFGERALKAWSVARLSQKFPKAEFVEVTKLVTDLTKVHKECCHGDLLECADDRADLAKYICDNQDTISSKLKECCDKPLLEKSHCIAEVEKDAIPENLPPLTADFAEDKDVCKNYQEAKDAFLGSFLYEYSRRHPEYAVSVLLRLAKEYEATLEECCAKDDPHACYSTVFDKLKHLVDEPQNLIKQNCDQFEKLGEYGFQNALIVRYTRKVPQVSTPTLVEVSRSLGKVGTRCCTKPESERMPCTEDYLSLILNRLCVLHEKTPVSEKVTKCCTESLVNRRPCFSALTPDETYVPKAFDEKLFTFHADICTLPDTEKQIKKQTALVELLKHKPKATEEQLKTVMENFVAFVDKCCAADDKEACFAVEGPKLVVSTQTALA

| K a (M^-1) | Compound |
| --- | --- |
| (1.1 ± 0.1) × 10^2 M^-1 | Nc1ccn([C@@H]2O[C@H](CO)[C@@H](O)[C@@H]2O)c(=O)n1 [cytarabine] |
| (2.3 ± 0.4) × 10^2 M^-1 | NC(=O)NO [hydroxyurea] |
| (2.4 ± 0.2) × 10^2 M^-1 | Nc1ccn([C@@H]2O[C@H](CO)[C@@H](O)C2(F)F)c(=O)n1 [gemcitabine] |
